According to patent US20060247156A1, “Use of neuropeptides for ligament, cartilage, and bone healing” (priority 2004, published 2006):
Where “and” joins values, the source holds several entries; their conditions need not be identical. Equal values may be shown once. Entries after “also recorded” stand apart in the source; their conditions may differ.

Columns and labels:
MCL [1] = conditions: cited from earlier work
[2] = tested on: bovine articular chondrocytes; assay: Bovine chondrocytes proliferation assay (CellTiter 96 AQueous One); format: cell-based; conditions: CGRP 100 pg/ml, NPY 50 ng/ml, SP 500 pg/ml, VIP 1 ng/ml
Experimental: (§1) Cartilage chunks were then digested at 37° C. in DMEM containing 0.05% hyaluronidase for 30 minutes, followed by 0.05% collagenase digestion overnight. The digests were filtered through 40-micron nylon mesh and centrifuged at 600×g for 20 minutes. The cell pellets were then resuspended in DMEM and counted using a hemacytometer.
(§2) Cells were plated at 1×10^5 cells/well in 12-well plates (n=9) for proteoglycan assays and at 2×10^4 cells/well in 96-well plates (n=16) for proliferation assays. The culture volumes were 1 ml/well in 12-well plates and 100 μl/well in 96-well plates.
(§3) The plates were incubated at 37° C. in a humidified CO2 incubator for 3 days to allow the cells to recover from the harvesting procedure.
(§4) On Day 3 of treatment, 20 μl of CellTiter 96® AQueous One Solution Cell Proliferation Assay (Promega Corporation, Madison, Wis.) was added to each well of the 96-well cultures for 60 minutes, and cells in the 12-well plates were digested with 0.125 units of papain/well overnight. After the 60-minute incubation, the absorbance of the color generated by the cells in the 96-well plates was measured at wavelength 490 nm.

healing MCL = assay: Local neuropeptide delivery to normally innervated healing MCL: mechanical testing, histomorphology; format: in vivo, rat
Experimental: Animal Model and Surgery: Forty female Wistar rats (200-250 g) were divided into five groups.
All rats underwent bilateral MCL rupture. Neuropeptides were then delivered ruptured MCLs unilaterally. Neuropeptide infused mini-osmotic pumps (Alzet Corp.) were implanted subcutaneously into the back of each rat. A small catheter running from the pump was run to an intramuscular space above the MCL and was secured.
(§5) Mechanical Testing: Mechanical testing was performed as described in Chapter 2. Briefly, animal hind limbs from all groups (n=5 for all groups) were disarticulated at the hip joint and stored at −80° C. until testing. On the day of testing, MCLs including intact femoral and tibial bone sections were excised for ex vivo testing. Ligament thickness and width was measured optically, and MCL area was estimated with elliptical geometry. For strain measurements, optical markers were placed onto the ligament tissue near the insertion sites. A small preload of 0.1N was applied to the ligaments in order to obtain a uniform starting point. The ligaments were then preconditioned to 1% strain for 10 cycles. After preconditioning, ligaments were pulled to failure at a rate of 10% per second.
Tissue displacement was obtained using video dimensional analysis using equations (1) and (2) supra. The mechanical properties that were examined in this study were maximum force, ultimate stress, strain at failure, elastic modulus, and area. Statistical analysis was performed using paired ttests to compare each treated MCL to its contralateral control (alpha=0.05).
(§6) Ligaments were immediately fixed in formalin fixative for three days at room temperature. Specimens were embedded in paraffin, sectioned (6 μm), mounted on slides, and stained with hematoxylin and eosin (H&E).

[3] = tested on: ruptured MCL of a surgical sympathectomy (SS) rat; assay: Local neuropeptide delivery to ruptured MCL of surgical sympathectomy (SS) rats: mechanical testing, histomorphology; format: in vivo
From the text: Surgical Procedure: Thirteen female Wistar rats (306 g to 339 g) were divided into two groups: surgical sympathectomy (SS) or sham control. All rats were anesthetized with isofluorane as described in Example 1. A transperitoneal approach was used. The lower abdomen was shaved and prepared for surgery. A skin incision approximately 25 mm long was made. Fascia and abdominal muscle were incised. Abdominal organs were displaced. With the aid of a dissecting microscope, fascia surrounding the deep muscle tissue was separated (with minimal disruption to the muscle tissue) to expose the post-ganglionic sympathetic nerves. The L1-4 nerves were isolated and transected (with removal of a 5 mm segment of the nerves) in the surgical sympathectomy group only. In both groups, the deep muscle tissue was returned to its initial position and abdominal organs were replaced. Abdominal muscles and skin were closed in two layers with a 3-0 or 4-0 continuous dexon suture. Rats from each group (n=4 SS; n=3 controls) then underwent a complete surgical rupture of the MCL to one knee. The contra-lateral knee underwent sham surgery. […] Two weeks post-surgery, rats were sacrificed using an overdose of pentobarbitone (150 mg/kg).
Local delivery of NPs and NP inhibitors is important to identify the specific roles of individual NPs on healing tissues. An animal model for the local delivery of NPs has been developed and is presented in this Example. Briefly, NP infused mini-osmotic pumps were implanted subcutaneously into the back of rats. A small catheter running from the pump to an intramuscular space above the MCL was secured to the rat.
To test whether autonomic NPs improve healing in SS-ruptured MCLs, three female Wistar rats (193 g to 204 g) were given VIP locally to the MCL. Vasoactive intestinal peptide (75 pg/μl) was infused into a mini-osmotic pump and was delivered to a ruptured MCL of a surgical sympathectomy (SS) rat (see surgical procedure above). Within minutes of surgical intervention, all rats recovered and had normal movement and behavior (grooming, feeding, etc.). […] The results are presented graphically in FIG. 6.
Animal Model and Surgery: Thirty-seven female Wistar rats (199-298 g) were divided into five groups. […] Rats that were designated to receive SP or CGRP underwent bilateral femoral nerve transection (see previous examples). Rats that were designated to receive NPY, VIP, or a combination of NPY and VIP underwent bilateral surgical sympathectomy. Following surgical nerve transection, each rat also underwent bilateral MCL rupture. Neuropeptides were then delivered ruptured MCLs unilaterally. Neuropeptide infused mini-osmotic pumps (Alzet Corp.) were implanted subcutaneously into the back of each rat. A small catheter running from the pump was run to an intramuscular space above the MCL and was secured. To ensure that neuropeptides are delivered directly to the MCL, rhodamine labeled SP was delivered via a catheter to the MCL (n=2 rats).
Within minutes of surgical intervention, all rats recovered and had normal movement and behavior (grooming, feeding, etc.). To test whether autonomic NPs improve healing in SS ruptured MCLs, seven rats were given VIP, seven rats were given NPY, and seven rats were given a combination of VIP and NPY. […]
Mechanical Testing: Mechanical testing was performed as described in the preceding examples. Briefly, animal hind limbs from all groups (n=4 for all groups) were disarticulated at the hip joint and stored at −80° C. until testing. On the day of testing, MCLs including intact femoral and tibial bone sections were excised for ex vivo testing. Ligament thickness and width was measured optically, and MCL area was estimated with elliptical geometry. For strain measurements, optical markers were placed onto the ligament tissue near the insertion sites. […]

[4] = tested on: Bovine nucleus pulposus cells; assay: Bovine nucleus pulposus (intervertebral disc) cell proliferation; format: cell-based; conditions: CGRP 10 ng/ml, NPY (mcg/ml, SP 5 mcg/ml); day 1, day 2, day 3
Experimental: Bovine calf spines and femoral condyles were obtained from a slaughterhouse and freshly transported to the laboratory. Nucleus pulposus tissue was carefully dissected, avoiding annular and endplate cartilage tissues, from each disc. Articular cartilage from femoral condyles was dissected in the same manner. […] Cells were harvested by overnight digestion with hyaluronidase and collagenase, followed by filtration. Cells were plated at a density of 1×10^5 cells/ml and incubated at 37° C. in 5% CO2 and 95% air in the presence of each neuropeptide or media only (control). At various time points in growth, cells were collected for proliferation and glycosaminoglycan (GAG) production assays. Varying concentrations of NPs were examined.
Well established colorimetric and luminescent assays (CellTiter 96® AQueous Non-radioactive Cell Proliferation and CellTiter-Glo® Luminescent Cell Viability Assays, Promega, Madison, Wis.) were used to quantify the effect of each NP on cell proliferation. In addition, corresponding cell cultures during growth were digested with papain to release glycosaminoglycans (GAGs). Dimethyl methylene blue (DMMB) colorimetric assays were used to quantify the amount of GAGs in each culture.
Multiple samples for test and control groups were performed simultaneously. Statistical analyses using one way analysis of variance (ANOVA) with large degrees of freedom (n=12 for GAG assays; n=24 for proliferation assays) were performed to establish the significance of differences between test groups and control groups for each day of growth in culture.
The effect of neuropeptides on intervertebral disc cell proliferation was examined in order to elucidate further the pathophysiology of degenerative disc disease. Bovine nucleus pulposus cells were incubated with the same neuropeptides.

[5] = tested on: bovine articular chondrocytes; assay: Bovine chondrocytes glycosaminoglycan assay (DMMB); format: cell-based; conditions: NPY 50 ng/ml; Day 3 of treatment; individual wells
Experimental: as §1, §2, §3, §4
Following papain digestion of the cultures in 12-well plates, the amount of glycosaminoglycan (representative of proteoglycans) in each well was measured using the dimethylmethylene blue (DMMB) dye-binding assay. The results were statistically analyzed and plotted.

MCL [6] = assay: MCL organ culture with capsaicin, mechanical testing; design: species or system rat
intact and healing MCLs = assay: Intact and healing MCL after in vivo capsaicin: mechanical testing, healing, histomorphology; design: species or system rat
Experimental: In Group 2, control rats (n=6) were injected with an equal volume of 0.9% saline. […] These rats were also divided into two groups. […] After 3 days of treatment, both groups underwent a surgical rupture of one MCL. Contralateral MCLs were used as sham controls. All rats were maintained in their normal cage environment for 10 days. Then, they were sacrificed as noted above. Femur-MCL-tibia (FMT) complexes were then harvested and tested as above.
Injections were made into a site between the scapulae. […] Bupivicaine was also administered subcutaneously at the site of the capsaicin injection. […] Into Group 2 (n=6 animals) and Group 4 (n=9 animals), a similar volume of sterile saline was injected via the same method. All other medications were given as in the treated groups. There were no signs of infection, discomfort, or unusual behavior in the treated rats. […] Contralateral legs were used as sham controls.
as §5, with “the previous examples.” for “Chapter 2.”, “(n=4 Group 1; n=4 Group 2; n=4 Group 3; n=4 Group 4)” for “(n=5 for all groups)”, “˜10%” for “10%”, “second. Tissue displacement was obtained using video dimensional analysis using equations (1) and (2) infra. The mechanical properties that were examined in this study were maximum force, ultimate stress, strain at failure, elastic modulus, and area. Statistical analysis was performed using an unpaired t-test (p=0.05) to analyze differences between the control and treatment group.” for “second.”
as §6

[7] = tested on: MCL neuropeptide concentration (SP, CGRP, NPY, VIP); assay: Neuropeptides in MCL after capsaicin (RIA, immunofluorescence); format: in vivo, rat
Experimental: Injections were made into a site between the scapulae. […] Into Group 2 (n=6 animals) and Group 4 (n=9 animals), a similar volume of sterile saline was injected via the same method. All other medications were given as in the treated groups. […] Contralateral legs were used as sham controls.
Neuropeptide Radioimmunoassay: Four MCLs from all groups were used for quantification of neuropeptide concentrations via RIA. MCLs were homogenized using a mortar and pestle.
Each ligament was then incubated in two […] appropriately tagged (AMCA or Rhodamine; Chemicon, Temecula, Calif.) secondary antibodies.

[8] = Example 7: normally innervated rats, bilateral MCL rupture, mini-osmotic pump (SP 75, CGRP 10, NPY 65, VIP 100 pg/100 μl), two weeks of healing
[9] = second study, Group 3: capsaicin 50 mg/kg/day x3 days, ruptured MCL, healing
[10] = Group 3: ruptured MCL, capsaicin 50 mg/kg/day for three days, two weeks of healing

insulin-like growth factor-1
healed strength relative to intact ligament (MCL [1]; Provenzano et al., following 30 days of delivery): 66%

neuropeptide Y [NPY]
proliferation of articular chondrocytes compared to controls (in words) [2]: stimulate proliferation
histomorphology (H&E) of healing MCL (healing MCL; Example 7, two weeks of healing): less of an effect on tissue alignment
failure force (healing MCL; [8]): 7.7±1.1 N
ultimate stress (healing MCL; [8]): 5.6±2.2 MPa
failure force ([3]; Example 6: SS rats, bilateral MCL rupture, mini-osmotic pump (NPY 65 pg/100 μl; VIP 100 pg/100 μl; or both), two weeks of healing): 12.2±0.9 N
histomorphology (H&E) of healing MCL ([3]; SS rats, VIP or NPY, two weeks): more aligned
healing response of MCLs relative to intact controls ([3]; neuropathic ruptured MCL, two weeks of healing): 70%
disc cell proliferation compared to controls [4]: stimulate disc cell proliferation
Glycosaminoglycan Assay [5]: 7.783 μg/dish and 9.327 μg/dish and 6.2383 μg/dish and 8.055 μg/dish and 7.964 μg/dish and 5.148 μg/dish and 5.784 μg/dish and 7.874 μg/dish and 8.328 μg/dish

COc1cc(CNC(=O)CCCC/C=C/C(C)C)ccc1O [capsaicin]
ultimate stress (MCL [6]; organ culture 10 days with capsaicin in media): 66.0±4.7 MPa
ultimate force (MCL [6]; organ culture with capsaicin-supplemented media): no changes
histomorphology (H&E) of healing MCL (intact and healing MCLs; capsaicin treated, two weeks of healing): hypercellular and disorganized
healing of MCL and skin wounds (in words) (intact and healing MCLs; capsaicin-treated rats with MCL rupture): one MCL failed to heal; also recorded: healed poorly
ultimate stress of the ruptured ligament (intact and healing MCLs; first study: capsaicin 50 mg/kg, MCL rupture after 3 days of treatment, n=3): 4.6 MPa
ultimate stress of intact MCLs (intact and healing MCLs; first study: capsaicin 50 mg/kg, intact MCL, 10 days): substantially reduced
abnormalities in movement, body weight, or behavior (intact and healing MCLs; following initial recovery from capsaicin injection): No abnormalities
failure force, ultimate stress, failure strain, area, and elastic modulus of intact MCL (intact and healing MCLs; second study, Group 1 vs Group 2, intact MCL): not significantly changed
failure force (intact and healing MCLs; [9]): 4.5±2.7 N
ultimate stress (intact and healing MCLs; [9]): 2.7±1.9 MPa
CGRP concentration in MCL (RIA) ([7]; Group 1: intact MCL, capsaicin 50 mg/kg/day s.c. for three days, 10 days after last injection): 0.04 pmol/g
CGRP concentration in MCL (RIA) [7, 10]: 0.042 pmol/g
NPY concentration in MCL (RIA) [7, 10]: 3.09 pmol/g
SP concentration in MCL (RIA) [7, 10]: 0.09 pmol/g
VIP concentration in MCL (RIA) [7, 10]: 1.07 pmol/g

platelet-derived growth factor [PDGF]
healed MCL strength relative to intact ligament strength (MCL [1]; Woo et al., after 6 weeks of healing): 50%
